Assay: Homogeneity of GOA: citric acid by HPLC in eight aliquots
Format: physicochemical
Method: Citric acid is determined quantitatively by dissolving a known quantity of glucosamine citrate in deionized water. The solution is filtered through a 0.22μ filter into a HPLC vial. The sample is analyzed by HPLC using a BioRad HPX-87H column (BioRad, City, State) and 0.01 N H2SO4 as the mobile phase.
A sample containing a blend comprising 20% by weight anhydrous citric acid and 80% glucosamine hydrochloride was blended by tumbling for five minutes. The blended sample was poured into a tray. Eight aliquots were collected from different areas of the tray. The aliquots were diluted in 0.01N H2SO4, and then analyzed for citric acid by the method described in Example 6. The peak areas were normalized by the aliquot weights, and then averaged. The relative standard deviation for the eight aliquots was 7.7%.
A sample of GOA from Example 2, which had been stored at room temperature in a flask for approximately eleven months, having 12.3% citric acid was analyzed similarly. Eight aliquots were taken from the sample. Citric acid was determined by HPLC as described above. The peak areas were normalized by the aliquot weights, and then averaged. The relative standard deviation for the eight aliquots was 1.9%.
The analytical precision measured from eight aliquots of pure citric acid was 1.8% relative.

N[C@H]1C(O)O[C@H](CO)[C@@H](O)[C@@H]1O.O=C(O)CC(O)(CC(=O)O)C(=O)O [GOA from Example 2, glucosamine citrate]
degree of homogeneity (precision compared with pure citric acid): high degree of homogeneity

O=C(O)CC(O)(CC(=O)O)C(=O)O [citric acid]
analytical precision measured from eight aliquots (pure citric acid, HPLC): 1.8 % relative
